Several values for one entry are separate records, joined by “and”; a condition that tells them apart may be missing. Equal values may be shown once. Read-outs that look alike come from different tables or passages of the source.
How the values were obtained:
Caco-2 cells = assay: Caco-2 permeability assay; type: in vitro ADME; conditions: pH 7.4/7.4, 10 µM; for Papp / Transport Rate: single replicates; for Recovery: single replicates A-C
Protocol: (§1) Caco-2 cells were cultured in DMEM supplemented with 20% FBS, 1% non-essential amino acids, and 1% penicillin-streptomycin. Caco-2 cells were seeded onto collagen-coated 12-Transwell membranes at a density of 5 × 10^5 cells/mL and incubated under optimal conditions (maintained at 37 °C in a humidified atmosphere with 5% CO2/95% air) for 21 days. The culture medium was replaced every second day. For the experiments, after the growth medium was removed, the attached cells were washed with pre-warmed HBSS (pH 7.4) and pre-incubated with HBSS for 20 min at 37 °C. The integrity of the cell monolayers was evaluated before and after the permeability experiments by measuring transepithelial electrical resistance (TEER) values using an epithelial volt/ohm meter (World Precision Instruments, Sarasota, FL, USA). Caco-2 cells with TEER values higher than 300 Ω∙cm^2 were used for permeability experiments, and alterations in TEER values were less than 10% in all cases (i.e., 417.3 ± 6.3 Ω∙cm^2 and 400.8 ± 3.5 Ω∙cm^2, before and after the permeability experiments, respectively).
(§2) To determine the apical to basal (A to B) permeability of tegoprazan, 0.5 mL of HBSS containing 10 µM tegoprazan and 1.5 mL of fresh HBSS were added to the apical and basal side of the insert, respectively. The insert was transferred to a new well that contained 1.5 mL of fresh HBSS every 15 min, for 1 h. Aliquots (0.3 mL) on the basal side were transferred to fresh tubes and stored at −80 °C until further analysis. To investigate B-to-A permeability, 1.5 mL of HBSS containing 10 µM tegoprazan and 0.5 mL of fresh HBSS were added to the basal and apical sides of the insert, respectively. Aliquots (0.3 mL) on the apical side were transferred to fresh tubes, and 0.3 mL of pre-warmed fresh HBSS was replaced every 15 min for 1 h. The transport study was performed for 1 h based on the linearity of the cumulative transported tegoprazan amount versus transport time. The cumulative transported amount was calculated as the sum of transported amounts for 0–15 min, 15–30 min, 30–45 min, and 45–60 min, and the transport rate of tegoprazan was the slope of the regression line derived from the cumulative transported amount versus time plot. The apparent permeability (Papp) was calculated from the following Equation (2):(2) Papp(10^−6cm/s)=transport rate (nmol/min)/concentration (μM)× area(cm^2)×60 s
(§3) Caco-2 and rCYP samples were quantified using LC-MS/MS (UPLC® I-class coupled with TQ-MS (Waters, Milford, MA, USA). The mobile phase comprised (a) 0.1% formic acid and (b) acetonitrile containing 0.1% formic acid. Gradient elution at a flow rate of 0.3 mL/min was applied. Tegoprazan, M1, and the internal standard (tegoprazan-d6) were optimized in electrospray ionization positive mode. Acetonitrile with 0.1 μM of tegoprazan-d6 was added to the collected Caco-2 or rCYP samples. Then, processed samples were centrifuged at 13,000× g for 20 min. After centrifugation, 100 μL of supernatant was transferred to an LC-MS vial and analyzed using LC-MS/MS. The analytical method was validated based on the Bioanalytical Method Validation Guidance for Industry published by the US Food and Drug Administration and the Guideline on Bioanalytical Method Validation published by the Korean Ministry of Food and Drug Safety (MFDS). Linearity was in the range of 0.1–20 µM, and the inter-batch accuracy and precision were in the ranges of 91.8–101.3% and 2.3–8.9%, respectively. The stability of tegoprazan was evaluated, and it satisfied the acceptance criteria (coefficient of variances was within 15%) under variable conditions including reinjection, processed sample stability (PSS), and short-term stability for the stock and sample.

[1] = Caco-2 permeability assay; type: in vitro ADME; conditions: human
Protocol: as §1, §2, §3

CYP2C9 = molecular target: T1, CYP2C9 (Homo sapiens, UniProt P11712); assay: Intrinsic clearance using recombinant CYPs: CYP2C9; type: in vitro ADME
T1 construct: purchased Corning Life Sciences (Woburn, MA, USA)
T1 sequence (P11712 whole entry): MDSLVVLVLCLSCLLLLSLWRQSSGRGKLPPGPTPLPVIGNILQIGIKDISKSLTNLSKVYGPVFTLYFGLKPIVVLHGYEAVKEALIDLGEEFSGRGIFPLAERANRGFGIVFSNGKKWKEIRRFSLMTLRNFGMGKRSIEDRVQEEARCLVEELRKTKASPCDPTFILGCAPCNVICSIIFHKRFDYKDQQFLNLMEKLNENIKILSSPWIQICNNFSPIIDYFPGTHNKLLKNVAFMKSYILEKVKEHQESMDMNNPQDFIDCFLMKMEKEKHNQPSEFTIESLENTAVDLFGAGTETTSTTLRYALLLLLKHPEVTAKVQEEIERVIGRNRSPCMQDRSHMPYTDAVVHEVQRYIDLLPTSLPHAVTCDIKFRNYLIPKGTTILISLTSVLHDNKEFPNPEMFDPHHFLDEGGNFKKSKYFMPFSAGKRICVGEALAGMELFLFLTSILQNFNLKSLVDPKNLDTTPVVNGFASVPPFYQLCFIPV
Protocol: The elimination profiles of tegoprazan and M1 were assessed using rCYPs. All the assay procedures were performed according to the manufacturer’s instructions. Master mix (1.399 mL), containing the NADPH-generating system, 3.3 mM of glucose 6-phosphate, PBS buffer, deionized water, and each rCYP (25 pmol/μL of CYP2C8, 2C19, and 2E1 and 50 pmol/μL of CYP3A4, 2C9, and 2D6), was added to a microtube and pre-incubated at 37 °C for 5 min. Next, 1 μM tegoprazan and M1 were added and incubated at 37 °C for 0, 5, 10, 20, 30, 45, and 60 min. A total of 100 μL of the sample, incubated for predefined duration, was transferred to a fresh e-tube. Next, 200 μL of acetonitrile containing tegoprazan-d6 (0.5 μM) was added, vortexed for 5 min, and centrifuged at 16,200× g and 4 °C for 10 min. The concentrations of the remaining tegoprazan and M1 were determined by LC–MS/MS. All experiments were performed in duplicate. CLint,rCYP levels were assessed using the results of the disappearance test. […] The CLint resulting from rCYPs was calculated using Equation (3):(3) CLint,rCYP(μL/min/pmol CYP)=0.693/t1/2×1400/concentration of CYP
as §3, with “The analytical method was validated based on the Bioanalytical Method Validation Guidance for Industry published by the US Food and Drug Administration and the Guideline on Bioanalytical Method Validation published by the Korean Ministry of Food and Drug Safety (MFDS). Linearity was in the range of 0.1–20 µM, and the inter-batch accuracy and precision were in the ranges of 91.8–101.3% and 2.3–8.9%, respectively.” left out

[2] = cited from earlier work
[3] = At 30 min after a high-fat meal, Observed (n = 12), single 50 mg, ref 34 (footnote; text: ref 16)

Cc1nc2cc(C(=O)N(C)C)cc(O[C@H]3CCOc4cc(F)cc(F)c43)c2[nH]1 [tegoprazan]
Papp (Caco-2 cells; A to B): 11.01 ×10⁻⁶ cm/s and 13.23 ×10⁻⁶ cm/s | Transport Rate (Caco-2 cells; A to B): 0.56 nmol/h and 0.48 nmol/h | Recovery (Caco-2 cells; A to B): 86.4% | Papp (Caco-2 cells; B to A): 10.36 ×10⁻⁶ cm/s and 13.36 ×10⁻⁶ cm/s | Transport Rate (Caco-2 cells; B to A): 0.49 nmol/h and 0.46 nmol/h and 0.53 nmol/h | Recovery (Caco-2 cells; B to A): 88.7% and 78.3% | Papp at 1 h, 10 µM ([1]; Caco-2, pH 7.4, A to B, pH 7.4/7.4, 10 µM, read-out: Papp, Mean): 12.5 ×10⁻⁶ cm/s | recovery at 1 h, 10 µM ([1]; Caco-2, pH 7.4, A to B, pH 7.4/7.4, 10 µM, read-out: Recovery, Mean): 84.5% | recovery at 1 h, 10 µM ([1]; Caco-2, pH 7.4, A to B, pH 7.4/7.4, 10 µM, single replicates A-C, read-out: Recovery): 82.7% | Papp at 1 h, 10 µM ([1]; Caco-2, pH 7.4, A to B, pH 7.4/7.4, 10 µM, single replicates, read-out: Papp): 13.4 ×10⁻⁶ cm/s | Papp at 1 h, 10 µM ([1]; Caco-2, pH 7.4, B to A, pH 7.4/7.4, 10 µM, read-out: Papp, Mean): 11.7 ×10⁻⁶ cm/s | recovery at 1 h, 10 µM ([1]; Caco-2, pH 7.4, B to A, pH 7.4/7.4, 10 µM, read-out: Recovery, Mean): 84.3% | recovery at 1 h, 10 µM ([1]; Caco-2, pH 7.4, B to A, pH 7.4/7.4, 10 µM, single replicates A-C, read-out: Recovery): 85.9% | Papp at 1 h, 10 µM ([1]; Caco-2, pH 7.4, B to A, pH 7.4/7.4, 10 µM, single replicates, read-out: Papp): 11.4 ×10⁻⁶ cm/s | Papp at 1 h, 10 µM ([1]; Caco-2, pH 7.4, initial model value (experimental), read-out: Papp,caco-2): 12.5 ×10⁻⁶ cm/s | CLint, CYP2C9 (CYP2C9; 1 μM, experimental data): 0.14 µL/min/pmol and 0.140 µL/min/pmol | half-life at 1 μM (CYP2C9; human, recombinant CYP2C9, rCYP2C9): 2.27 h | Slope (disappearance) (CYP2C9; rCYP2C9, 1 μM): -0.005 | Tmax ([2]; At 30 min after a high-fat meal, Observed (n = 12), single 50 mg, median (min–max), ref 34 (footnote; text: ref 16)): 3.0 (0.5–8.0) h | AUC0–24 h [2, 3]: 3017 ± 1194 ng·h/mL | Cmax [2, 3]: 492.0 ± 293.9 ng/mL | AUC0–24 h ([2]; Fast, Observed (n = 12), single 50 mg, mean ± SD, ref 34 (footnote; text: ref 16)): 2837 ± 1055 ng·h/mL | Cmax ([2]; Fast, Observed (n = 12), single 50 mg, ref 34 (footnote; text: ref 16)): 803.0 ± 156.2 ng/mL | Cmax ([2]; administered at 30 min after high-fat meal, observed): 492 ng/mL | median Tmax ([2]; at 30 min before a high-fat meal, observed): 0.48 h | Cmax ([2]; fasting state, observed): 803 ng/mL | Cmax at 30 min after a high-fat meal compared with fasting state (decreased to) ([2]; observed): 38.7%

Reference: article PMC9230797, “Integration of a Physiologically Based Pharmacokinetic and Pharmacodynamic Model for Tegoprazan and Its Metabolite: Application for Predicting Food Effect and Intragastric pH Alterations” (Pharmaceutics, 2022)
